Consider 2 compounds from patent publication US20030008843A1, “Bulking agents as satiety agents” (priority 2001, published 2003).

For assay [1] the following is noted: humans; cited from earlier work.
Assay [2] is described as follows: ad libitum test lunch energy intake 1.5 hours after yoghurt pre-load, days 1 and 10 (Example 1). The following applies: for difference in average test meal energy intake versus control (significance): paired comparison; for difference in average test meal energy intake versus control (significance) / combined (pre-load and test lunch) energy intake versus control (significance): p<0.05; for combined (pre-load and test lunch) energy intake versus control (significance): post-hoc paired comparisons. It is filed as in vivo, human. An excerpt:
Eight female and seven male subjects with mean ages ranging from about 29.5 to 30.7 yr. were used in the study. They were lean (having BMI of 21.6 Kg/m^2-23.8 Kg/m^2), and they exercised between 2-3 times per week. There were four experimental conditions that all subjects completed in a counterbalanced order with each condition separated by a one-week washout period. During each experimental condition, subjects were provided with either control or test yoghurts to consume as part of their normal diet for 10 consecutive days. The four experimental conditions differed according to the type of carbohydrate added to the yoghurt consumed: [table] Volunteers were required to consume one portion (200 g) of yoghurt on each of the 10 days. Therefore, energy content of the yoghurts varied between the four yoghurt formulations while weight was held constant. Subjects consumed the yoghurts for 10 consecutive days. However, days 2-9 were free-living during which time they were not required to visit the human appetite research unit (HARU), where the studies described hereinbelow were performed. On days 1 and 10 (test days), subjects were required to visit the HARU for a fixed breakfast at 8:30 a.m. and an ad libitum test lunch. The energy and nutrient content of the breakfast, was fixed for each of the conditions. Immediately after breakfast subjects were free to leave the unit and instructed to consume the yoghurt at 11:00am and not to consume any other food or drink during the breakfast-lunch interval. At 12:30 subjects returned to the unit for the ad libitum test lunch and were instructed to eat until a comfortable level of fullness. The food was weighed immediately before and after the test lunch to determine the energy and nutrient of food consumed. The test lunch was mixed composition (31% Fat, 53% Carbohydrate and 16% Protein) and consisted of sandwiches, […] fruit. Immediately after the test lunch subjects were provided with their yoghurts for days 2-9 and were instructed to return at 8:30 on day 10. On days 1 and 10, volunteers were provided with an ad libitum lunch 1.5 hours following consumption of the yoghurt pre-load.

The conditions of assay [3]: after ingestion of 25 g xylitol; control 58±5 min; cited from earlier work.
The conditions of assay [4]: after oral preloading of 25 g xylitol with water, cited from earlier work.

As to `CCCCCCCCCCC[C@@H](C[C@@H]1OC(=O)[C@H]1CCCCCC)OC(=O)[C@H](CC(C)C)NC=O` [tetrahydrolipostatin], the “reduction of human absorption of fat” value in assay [1] was 30%.

Consider `OC[C@@H](O)[C@H](O)[C@@H](O)CO` [Xyl, Xylitol], for which the “Suppression (%) in energy intake compared with the control yoghurt, All” value in assay [2] (all subjects, 25 g/day in 200 g yoghurt, test lunch 1.5 h after pre-load) came to 11.9%. For the same compound, the “Suppression (%) in combined preload plus test meal energy intake compared with the control yoghurt, All” value in assay [2] (all subjects, energy content of pre-load accounted for) is listed as 14.8%. The “Suppression (%) in combined preload plus test meal energy intake compared with the control yoghurt, Females” value in assay [2] (females, energy content of pre-load accounted for) is recorded as 11.6%. Moreover, in assay [2] (females, test lunch 1.5 h after pre-load), the “Suppression (%) in energy intake compared with the control yoghurt, Females” value was determined as 6.4%. Moreover, in assay [2] (males, energy content of pre-load accounted for), the “Suppression (%) in combined preload plus test meal energy intake compared with the control yoghurt, Males” value came to 16.1%. Further, the “Suppression (%) in energy intake compared with the control yoghurt, Males” value in assay [2] (males, test lunch 1.5 h after pre-load) is recorded as 15.3%. Moreover, the “difference in average test meal energy intake versus control (significance)” value in assay [2] is “statistically significant”; in assay [2] (listed as xylitol), “significant reduction”. The “combined (pre-load and test lunch) energy intake versus control (significance)” value in assay [2] is “significantly lower”; in assay [2] (listed as xylitol), “significant calorie reduction”. Further, the “gastric emptying T-1/2” value in assay [3] was 91 ± 7 min. In addition, the “reduction in calories versus control” value in assay [4] is 25%. For the same compound, the food intake in assay [4] (control 920±60 Kcal) is 690 ± 45 kcal.
